Test system: OCI-Ly10 cells
Assay: Proliferation-Inhibitory Test Against Diffuse Large-Cell B-Cell Lymphoma OCI-Ly10 Strain
Assay type: cell-based
Settings: Homo sapiens, 96 hours, alamarBlue
Experimental: OCI-Ly10 cells were cultured in IMDM medium (Iscove's Modified Dulbecco's Medium, Manufactured by Thermo Fisher Scientific Inc., hereinafter “medium”) containing 20% Fetal bovine serum and 1% penicillin-streptomycin (Nacalai Tesque, Inc.) in a 5% CO2 incubator. OCI-Ly10 cells were seeded to 96-well plate (20000 cells/well), compounds diluted with medium were added with final concentrations of 0.9 nM to 30000 nM (Final DMSO concentration, 0.3%), incubated for 96 hours and alamorBlue reagent (Thermo Fisher Scientific Inc.) was added.

Compound | IC50
Nc1nc(-c2cccc(-n3ccc4cc(C5CC5)cc(F)c4c3=O)c2CO)c2cc(-c3cc(F)cc(F)c3)[nH]c2n1 [Example 44, 2-{3-[2-amino-6-(3,5-difluorophenyl)-7H-pyrrolo[2,3-d]pyrimidin-4-yl]-2-(hydroxymethyl)phenyl}-6-cyclopropyl-8-fluoroisoquinolin-1(2H)-one] | 0.885 µM
Nc1nc(-c2cccc(-n3ccc4cc(C5CC5)cc(F)c4c3=O)c2CO)c2cc(-c3ccc(F)cn3)[nH]c2n1 [Example 45, 2-{3-[2-amino-6-(5-fluoropyridin-2-yl)-7H-pyrrolo[2,3-d]pyrimidin-4-yl]-2-(hydroxymethyl)phenyl}-6-cyclopropyl-8-fluoroisoquinolin-1(2H)-one] | 0.134 µM
Nc1nc(-c2cccc(-n3ccc4cc(C5CC5)cc(F)c4c3=O)c2CO)c2cc(-c3cncc(F)c3)[nH]c2n1 [Example 46, 2-{3-[2-amino-6-(5-fluoropyridin-3-yl)-7H-pyrrolo[2,3-d]pyrimidin-4-yl]-2-(hydroxymethyl)phenyl}-6-cyclopropyl-8-fluoroisoquinolin-1(2H)-one] | 0.564 µM
CNc1ccc(-c2cc3c(-c4cccc(-n5ccc6cc(C7CC7)cc(F)c6c5=O)c4CO)nc(N)nc3[nH]2)cn1 [Example 47, 2-(3-{2-amino-6-[6-(methylamino)pyridin-3-yl]-7H-pyrrolo[2,3-d]pyrimidin-4-yl}-2-(hydroxymethyl)phenyl)-6-cyclopropyl-8-fluoroisoquinolin-1(2H)-one] | 0.204 µM
Nc1nc(-c2cccc(-n3ccc4cc(C5CC5)cc(F)c4c3=O)c2CO)c2cc(-c3ccc(N4CCOCC4)nc3)[nH]c2n1 [Example 48, 2-{3-[2-amino-6-(6-morpholinopyridin-3-yl)-7H-pyrrolo[2,3-d]pyrimidin-4-yl]-2-(hydroxymethyl)phenyl}-6-cyclopropyl-8-fluoroisoquinolin-1(2H)-one] | 0.054 µM
COc1cc(-c2cc3c(-c4cccc(-n5ccc6cc(C7CC7)cc(F)c6c5=O)c4CO)nc(N)nc3[nH]2)ccn1 [Example 49, 2-{3-[2-amino-6-(2-methoxypyridin-4-yl)-7H-pyrrolo[2,3-d]pyrimidin-4-yl]-2-(hydroxymethyl)phenyl}-6-cyclopropyl-8-fluoroisoquinolin-1(2H)-one] | 0.088 µM
CN1CCN(Cc2ccc(-c3cc4c(-c5cccc(-n6ccc7cc(C8CC8)cc(F)c7c6=O)c5CO)nc(N)nc4[nH]3)cc2)CC1=O [Example 55, 2-[3-(2-amino-6-{4-[(4-methyl-3-oxopiperazin-1-yl)methyl]phenyl}-7H-pyrrolo[2,3-d]pyrimidin-4-yl)-2-(hydroxymethyl)phenyl]-6-cyclopropyl-8-fluoroisoquinolin-1(2H)-one] | 0.013 µM
Cc1ccc(-c2cc3c(-c4cccc(-n5ccc6cc(C7CC7)cc(F)c6c5=O)c4CO)nc(N)nc3[nH]2)cc1 [Example 56, 2-{3-[2-amino-6-(p-tolyl)-7H-pyrrolo[2,3-d]pyrimidin-4-yl]-2-(hydroxymethyl)phenyl}-6-cyclopropyl-8-fluoroisoquinolin-1(2H)-one] | 0.412 µM
Nc1nc(-c2cccc(-n3ccc4cc(C5CC5)cc(F)c4c3=O)c2CO)c2cc(-c3cnn(Cc4ccccc4)c3)[nH]c2n1 [Example 58, 2-{3-[2-amino-6-(1-benzyl-1H-pyrazol-4-yl)-7H-pyrrolo[2,3-d]pyrimidin-4-yl]-2-(hydroxymethyl)phenyl}-6-cyclopropyl-8-fluoroisoquinolin-1(2H)-one] | 0.027 µM
CN(C)c1ccc(-c2cc3c(-c4cccc(-n5ccc6cc(C7CC7)cc(F)c6c5=O)c4CO)nc(N)nc3[nH]2)cn1 [Example 59, 2-(3-{2-amino-6-[6-(dimethylamino)pyridin-3-yl]-7H-pyrrolo[2,3-d]pyrimidin-4-yl}-2-(hydroxymethyl)phenyl)-6-cyclopropyl-8-fluoroisoquinolin-1(2H)-one] | 0.063 µM
COCCNc1cncc(-c2cc3c(-c4cccc(-n5ccc6cc(C7CC7)cc(F)c6c5=O)c4CO)nc(N)nc3[nH]2)c1 [Example 60, 2-[3-(2-amino-6-{5-[(2-methoxyethyl)amino]pyridin-3-yl}-7H-pyrrolo[2,3-d]pyrimidin-4-yl)-2-(hydroxymethyl)phenyl}-6-cyclopropyl-8-fluoroisoquinolin-1(2H)-one] | 0.064 µM
CCn1cc(-c2cc3c(-c4cccc(-n5ccc6cc(C7CC7)cc(F)c6c5=O)c4CO)nc(N)nc3[nH]2)cn1 [Example 62, 2-{3-[2-amino-6-(1-ethyl-1H-pyrazol-4-yl)-7H-pyrrolo[2,3-d]pyrimidin-4-yl]-2-(hydroxymethyl)phenyl}-6-cyclopropyl-8-fluoroisoquinolin-1(2H)-one] | 0.015 µM
CC(C)n1cc(-c2cc3c(-c4cccc(-n5ccc6cc(C7CC7)cc(F)c6c5=O)c4CO)nc(N)nc3[nH]2)cn1 [Example 63, 2-{3-[2-amino-6-(1-isopropyl-1H-pyrazol-4-yl)-7H-pyrrolo[2,3-d]pyrimidin-4-yl]-2-(hydroxymethyl)phenyl}-6-cyclopropyl-8-fluoroisoquinolin-1(2H)-one] | 0.016 µM
Nc1nc(-c2cccc(-n3ccc4cc(C5CC5)cc(F)c4c3=O)c2CO)c2cc(-c3cnn(-c4ccccc4)c3)[nH]c2n1 [Example 64, 2-{3-[2-amino-6-(1-phenyl-1H-pyrazol-4-yl)-7H-pyrrolo[2,3-d]pyrimidin-4-yl]-2-(hydroxymethyl)phenyl}-6-cyclopropyl-8-fluoroisoquinolin-1(2H)-one] | 0.642 µM
COc1ccc(-c2cc3c(-c4cccc(-n5ccc6cc(C7CC7)cc(F)c6c5=O)c4CO)nc(N)nc3[nH]2)cn1 [Example 65, 2-{3-[2-amino-6-(6-methoxypyridin-3-yl)-7H-pyrrolo[2,3-d]pyrimidin-4-yl]-2-(hydroxymethyl)phenyl}-6-cyclopropyl-8-fluoroisoquinolin-1(2H)-one] | 0.276 µM
Nc1nc(-c2cccc(-n3ccc4cc(C5CC5)cc(F)c4c3=O)c2CO)c2cc(-c3ccc(CN4CCSC4)cc3)[nH]c2n1 [Example 67, 2-(3-{2-amino-6-[4-(thiazolidin-3-ylmethyl)phenyl]-7H-pyrrolo[2,3-d]pyrimidin-4-yl)-2-(hydroxymethyl)phenyl}-6-cyclopropyl-8-fluoroisoquinolin-1(2H)-one] | 0.082 µM
CC(C)(C)OC(=O)N1CC=C(c2cc3c(-c4cccc(-n5ccc6cc(C7CC7)cc(F)c6c5=O)c4CO)nc(N)nc3[nH]2)CC1 [Example 68, tert-butyl 4-{2-amino-4-[3-(6-cyclopropyl-8-fluoro-1-oxoisoquinolin-2(1H)-yl)-2-(hydroxymethyl)phenyl]-7H-pyrrolo[2,3-d]pyrimidin-6-yl}-5,6-dihydropyridine-1(2H)-carboxylate] | 0.115 µM
Nc1nc(-c2cccc(-n3ccc4cc(C5CC5)cc(F)c4c3=O)c2CO)c2cc(C3=CCN(C(=O)N4CCOCC4)CC3)[nH]c2n1 [Example 70, 2-(3-{2-amino-6-[1-(morpholine-4-carbonyl)-1,2,3,6-tetrahydropyridin-4-yl]-7H-pyrrolo[2,3-d]pyrimidin-4-yl}-2-(hydroxymethyl)phenyl)-6-cyclopropyl-8-fluoroisoquinolin-1(2H)-one] | 0.004 µM
CC(C)(C)n1cc(-c2cc3c(-c4cccc(-n5ccc6cc(C7CC7)cc(F)c6c5=O)c4CO)nc(N)nc3[nH]2)cn1 [Example 72, 2-(3-{2-amino-6-[1-(tert-butyl)-1H-pyrazol-4-yl]-7H-pyrrolo[2,3-d]pyrimidin-4-yl}-2-(hydroxymethyl)phenyl)-6-cyclopropyl-8-fluoroisoquinolin-1(2H)-one] | 0.127 µM

— patent US10793575B2, “Oxoisoquinoline derivatives” (CARNA BIOSCIENCES, INC., priority 2016, dated 2020)
